In patent publication US20230278972A1, “SUBSTITUTED HALOALKYL SULFONANILIDE HERBICIDES” (FMC Corporation, priority 2020, published 2023):

Assays:
Format in all cases: in vivo
[1] = system: barnyardgrass (Echinochloa crus-galli); test: Test A preemergence, barnyardgrass; conditions: Preemergence; for Plant response rating, Barnyardgrass: 0 to 100 scale (0 no effect, 100 complete control); for Barnyardgrass plant response rating: 500 g ai/ha, visual injury on 0 to 100 scale (0 no effect, 100 complete control), approximately 10 days
In short: (§1)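 Compounds in non-phytotoxic solvent with surfactant. Soil: loam/sand. Preemergence via directed soil spray after seeding; postemergence on seedlings 2–10 cm, one- to two-leaf.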

kochia (Bassia scoparia) [2] = test: Test A preemergence, kochia; conditions: Preemergence; for Plant response rating, Kochia: 0 to 100 scale (0 no effect, 100 complete control); for Kochia plant response rating: 500 g ai/ha, visual injury on 0 to 100 scale (0 no effect, 100 complete control), approximately 10 days
In short: as §1

[3] = system: ragweed (common ragweed, Ambrosia artemisiifolia); test: Test A preemergence, ragweed; conditions: Preemergence; for Plant response rating, Ragweed: 0 to 100 scale (0 no effect, 100 complete control); for Ragweed plant response rating: 500 g ai/ha, visual injury on 0 to 100 scale (0 no effect, 100 complete control), approximately 10 days
In short: as §1

[4] = system: Ryegrass, Italian (Italian ryegrass, Lolium multiflorum); test: Test A preemergence, Ryegrass, Italian; conditions: Preemergence; for Plant response rating, Ryegrass, Italian: 0 to 100 scale (0 no effect, 100 complete control); for Ryegrass, Italian plant response rating: 500 g ai/ha, visual injury on 0 to 100 scale (0 no effect, 100 complete control), approximately 10 days
In short: as §1

[5] = system: Foxtail, Giant (giant foxtail, Setaria faberi); test: Test A preemergence, Foxtail, Giant; conditions: Preemergence; for Plant response rating, Foxtail, Giant: 0 to 100 scale (0 no effect, 100 complete control); for Foxtail, Giant plant response rating: 500 g ai/ha, visual injury on 0 to 100 scale (0 no effect, 100 complete control), approximately 10 days
In short: as §1

[6] = system: pigweed (Amaranthus retroflexus); test: Test A preemergence, pigweed; conditions: for Plant response rating, Pigweed: 0 to 100 scale (0 no effect, 100 complete control); for Pigweed plant response rating: 500 g ai/ha, visual injury on 0 to 100 scale (0 no effect, 100 complete control), approximately 10 days
In short: (§2)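 Pots: loam soil/sand blend. Pre: directed soil spray at planting. Post: plants 2–10 cm, 1–2 leaf stage. Formulation: non-phytotoxic solvent + surfactant.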

[7] = system: barnyardgrass (Echinochloa crus-galli); test: Test A postemergence, barnyardgrass; conditions: Postemergence, 0 to 100 scale (0 no effect, 100 complete control)
In short: as §2

kochia (Bassia scoparia) [8] = test: Test A postemergence, kochia; conditions: Postemergence, 0 to 100 scale (0 no effect, 100 complete control)
In short: as §1

[9] = system: ragweed (common ragweed, Ambrosia artemisiifolia); test: Test A postemergence, ragweed; conditions: Postemergence, 0 to 100 scale (0 no effect, 100 complete control)
In short: as §1

[10] = system: Ryegrass, Italian (Italian ryegrass, Lolium multiflorum); test: Test A postemergence, Ryegrass, Italian; conditions: Postemergence, 0 to 100 scale (0 no effect, 100 complete control)
In short: as §1

[11] = system: Foxtail, Giant (giant foxtail, Setaria faberi); test: Test A postemergence, Foxtail, Giant; conditions: Postemergence, 0 to 100 scale (0 no effect, 100 complete control)
In short: as §1

[12] = system: pigweed (Amaranthus retroflexus); test: Test A postemergence, pigweed; conditions: Postemergence, 0 to 100 scale (0 no effect, 100 complete control)
In short: as §1

[13] = system: wheat (Triticum aestivum); test: Test A postemergence, wheat; conditions: Postemergence, 0 to 100 scale (0 no effect, 100 complete control)
In short: as §2

corn (Zea mays) = test: Test A postemergence, corn; conditions: Postemergence, 0 to 100 scale (0 no effect, 100 complete control)
In short: as §1

[14] = system: blackgrass (Alopecurus myosuroides); test: Test A postemergence, blackgrass; conditions: Postemergence, 0 to 100 scale (0 no effect, 100 complete control)
In short: as §1

[15] = system: galium (catchweed bedstraw, Galium aparine); test: Test A postemergence, galium; conditions: Postemergence, 0 to 100 scale (0 no effect, 100 complete control)
In short: as §2

[16] = 125 g ai/ha, visual injury, approx. 10 days
[17] = 500 g ai/ha, visual injury approx. 10 days
[18] = 1000 g ai/ha, visual injury, approx. 10 days

| SMILES | Plant response rating, Barnyardgrass [1, 16] | Barnyardgrass plant response rating [1] | Plant response rating, Kochia (kochia (Bassia scoparia) [2]; [16]) | Kochia plant response rating (kochia (Bassia scoparia) [2]) | Plant response rating, Ragweed [3, 16] | Ragweed plant response rating [3] | Plant response rating, Ryegrass, Italian [4, 16] | Ryegrass, Italian plant response rating [4] | Plant response rating, Foxtail, Giant [5, 16] | Foxtail, Giant plant response rating [5] | Plant response rating, Pigweed [6, 16] | Pigweed plant response rating [6] | Plant response rating, Barnyardgrass ([7]; 125 g ai/ha) | Plant response rating, Barnyardgrass [7, 17] | Plant response rating, Kochia (kochia (Bassia scoparia) [8]; 125 g ai/ha) | Plant response rating, Kochia (kochia (Bassia scoparia) [8]; [17]) | Plant response rating, Ragweed ([9]; 125 g ai/ha) | Plant response rating, Ragweed [9, 17] | Plant response rating, Ryegrass, Italian ([10]; 125 g ai/ha) | Plant response rating, Ryegrass, Italian [10, 17] | also measured |
| --- | --- | --- | --- | --- | --- | --- | --- | --- | --- | --- | --- | --- | --- | --- | --- | --- | --- | --- | --- | --- | --- |
| Cc1cc(F)c(C(=O)N2CCOCC2)cc1NS(=O)(=O)C(F)(F)F [Compound 240] | 0 | 50 | 70 | 90 | 30 | 50 | 40 | 70 | 30 | 80 | 0 | 80 | 40 | 70 | 50 | 80 | 70 | 90 | 30 | 60 | Plant response rating, Foxtail, Giant ([11]; 125 g ai/ha): 20; Plant response rating, Foxtail, Giant [11, 17]: 60; Plant response rating, Pigweed ([12]; 125 g ai/ha): 30; Plant response rating, Pigweed [12, 17]: 50; Plant response rating, Wheat ([13]; 125 g ai/ha): 0; Plant response rating, Wheat [13, 17]: 30; Plant response rating, Corn (corn (Zea mays); 125 g ai/ha): 20; Plant response rating, Corn (corn (Zea mays); [17]): 10; Plant response rating, Blackgrass ([14]; 125 g ai/ha): 0; Plant response rating, Blackgrass [14, 17]: 10; Plant response rating, Galium ([15]; 125 g ai/ha): 50; Plant response rating, Galium [15, 17]: 70 |
| Cc1cc(C)c(C(=O)N2CCC(Cl)CC2)cc1NS(=O)(=O)C(F)(F)F [Compound 242] |  |  |  |  |  |  |  |  |  |  |  |  |  |  |  |  |  |  |  |  | Plant response rating, Barnyardgrass ([1]; 1000 g ai/ha): 100; Plant response rating, Kochia (kochia (Bassia scoparia) [2]; 1000 g ai/ha): 90; Plant response rating, Ragweed ([3]; 1000 g ai/ha): 90; Plant response rating, Ryegrass, Italian ([4]; 1000 g ai/ha): 100; Plant response rating, Foxtail, Giant ([5]; 1000 g ai/ha): 100; Plant response rating, Pigweed ([6]; 1000 g ai/ha): 100; Plant response rating, Barnyardgrass [7, 18]: 90; Plant response rating, Kochia (kochia (Bassia scoparia) [8]; [18]): 80; Plant response rating, Ragweed [9, 18]: 90; Plant response rating, Ryegrass, Italian [10, 18]: 0; Plant response rating, Foxtail, Giant [11, 18]: 90; Plant response rating, Pigweed [12, 18]: 90; Plant response rating, Wheat [13, 18]: 60; Plant response rating, Corn (corn (Zea mays); [18]): 70; Plant response rating, Blackgrass [14, 18]: 40; Plant response rating, Galium [15, 18]: 90 |
| Cc1cc(C)c(N(S(=O)(=O)C(F)(F)F)S(=O)(=O)C(F)(F)F)cc1C(=O)N1CCC(Cl)CC1 [Compound 243] | 80 | 90 | 20 | 80 | 70 | 80 | 90 | 100 | 100 | 100 | 100 | 100 | 50 | 70 | 10 | 70 | 30 | 90 | 0 | 30 | Plant response rating, Foxtail, Giant ([11]; 125 g ai/ha): 0; Plant response rating, Foxtail, Giant [11, 17]: 40; Plant response rating, Pigweed ([12]; 125 g ai/ha): 90; Plant response rating, Pigweed [12, 17]: 100; Plant response rating, Wheat ([13]; 125 g ai/ha): 0; Plant response rating, Wheat [13, 17]: 30; Plant response rating, Corn (corn (Zea mays); 125 g ai/ha): 0; Plant response rating, Corn (corn (Zea mays); [17]): 0; Plant response rating, Blackgrass ([14]; 125 g ai/ha): 0; Plant response rating, Blackgrass [14, 17]: 10; Plant response rating, Galium ([15]; 125 g ai/ha): 70; Plant response rating, Galium [15, 17]: 90 |
| COC1CCN(C(=O)c2cc(NS(=O)(=O)C(F)(F)F)c(Cl)cc2C)CC1 [Compound 246] | 40 | 100 | 40 | 90 | 80 | 90 | 70 | 100 | 90 | 100 | 90 | 100 | 70 | 90 | 20 | 80 | 90 | 90 | 0 | 10 | Plant response rating, Foxtail, Giant ([11]; 125 g ai/ha): 60; Plant response rating, Foxtail, Giant [11, 17]: 90; Plant response rating, Pigweed ([12]; 125 g ai/ha): 90; Plant response rating, Pigweed [12, 17]: 90; Plant response rating, Wheat ([13]; 125 g ai/ha): 20; Plant response rating, Wheat [13, 17]: 60; Plant response rating, Corn (corn (Zea mays); 125 g ai/ha): 20; Plant response rating, Corn (corn (Zea mays); [17]): 40; Plant response rating, Blackgrass ([14]; 125 g ai/ha): 20; Plant response rating, Blackgrass [14, 17]: 0; Plant response rating, Galium ([15]; 125 g ai/ha): 90; Plant response rating, Galium [15, 17]: 90 |
| Cc1cc(Cl)c(C(=O)N2CCOCC2)cc1NS(=O)(=O)C(F)(F)F [Compound 248] | 80 | 90 | 90 | 90 | 80 | 90 | 70 | 90 | 40 | 80 | 90 | 90 | 60 | 90 | 60 | 90 | 90 | 90 | 0 | 70 | Plant response rating, Foxtail, Giant ([11]; 125 g ai/ha): 20; Plant response rating, Foxtail, Giant [11, 17]: 50; Plant response rating, Pigweed ([12]; 125 g ai/ha): 80; Plant response rating, Pigweed [12, 17]: 80; Plant response rating, Wheat ([13]; 125 g ai/ha): 40; Plant response rating, Wheat [13, 17]: 60; Plant response rating, Corn (corn (Zea mays); 125 g ai/ha): 0; Plant response rating, Corn (corn (Zea mays); [17]): 0; Plant response rating, Blackgrass ([14]; 125 g ai/ha): 0; Plant response rating, Blackgrass [14, 17]: 60; Plant response rating, Galium ([15]; 125 g ai/ha): 70; Plant response rating, Galium [15, 17]: 90 |
